Data taken from US20240262812A1, “N-SUBSTITUTED PHENYLSULFONAMIDE COMPOUND AND USE THEREOF” (Shanghai Leado Pharmatech Co., Ltd., priority 2021, published 2024).

Columns and labels:
mTRPA1 = target: T1, mTRPA1 (Mus musculus, UniProt Q8BLA8); test: IonWorks Barracuda (IWB) automated patch clamp, TRPA1 inhibitory activity; assay type: cell-based; conditions: HEK293 cells stably expressing mTRPA1, current induced by AITC, amplitude at +100 mV; read-out: IC50 (inhibition activity on TRPA1)
T1 construct: expressed in transfected cells
Description: In this example, the inhibitory activity of the compounds prepared in some examples of the present invention on transient receptor potential channel protein ankyrin 1 (TRPA1) was tested. Among them, compound of formula A (WO2010075353) was used as the positive control compound: […]
Test method using IonWorks Barracuda (IWB) automated patch clamp detection: HEK293 cells stably expressing mTRPA1 were placed in the T175 culture flask with DMEM medium containing 15 µg/mL Blasticidin S HCl, 200 µg/mL Hygromycin B and 10% FBS, and cultured in 37° C., 5% CO2 incubator. When the cell density reached about 80%, the culture medium was removed, washed once with phosphate buffered saline (PBS) without calcium and magnesium. 3 mL of Trypsin was added to digest for 2 min, 7 mL of culture solution was added to terminate the digestion. The cells were collected to 15 mL centrifuge tube and centrifuged at 800 rpm for 3 min. After the supernatant was removed, the cells were added to appropriate volume of extracellular fluid for re-suspending, and the cell density was controlled at 2-3×10^6/mL for use in IWB experiment. Extracellular fluid formulation (in mM): 140 NaCl, 5 KCl, 1 MgCl2, 10 HEPES, 0.5 EGTA, 10 Glucose (pH 7.4); intracellular fluid formulation (in mM): 140 CsCl, 10 HEPES, 5 EGTA, 0.1 CaCl2, 1 MgCl2 (pH 7.2). 28 mg/mL of amphotericin B was freshly prepared with DMSO on the day of experiment, and then final concentration of 0.1 mg/mL was prepared with intracellular fluid.
Population patch clamp (PPC) plate was used in IWB experiment. The entire detection process was automatically carried out by the instrument, that is, extracellular fluid was added into 384 wells of PPC plate, and after intracellular fluid was added under PPC plate (in plenum), 6 µL of cell fluid was added for sealing test, and finally the intracellular fluid in plenum was replaced with intracellular fluid containing amphotericin B to establish a whole-cell recording mode after perforating sealed cells. The sampling frequency for recording TPRA1 current was 10 kHz, the cells were clamped at 0 mV, the voltage stimulation command (channel protocol) was a ramp voltage from −100 mV to +100 mV for 300 ms. This voltage stimulation was applied every 10 s, mTRPA1 current was induced by 300 µM AITC.
Data recording and current amplitude measurement export were carried out by IWB software (version 2.5.3, Molecular Devices Corporation, Union City, CA). No statistics was recorded for holes with sealing impedance lower than 20 MΩ. The original current data was corrected by software for leak subtraction. TRPA1 current amplitude was measured at +100 mV. […] If IC50 value of HC030031 exceeded 3 times of the average IC50 value previously obtained on each plate, it would be re-tested. The dose-effect curve of compounds and IC50 were fitted and calculated by GraphPad Prism 5.02 (GraphPad Software, San Diego, CA).
Some compounds of the present invention were subjected to IC50 inhibition activity test using the IonWorks Barracuda (IWB) automated patch clamp detection method.

chemokine receptor CCR9 = target: T2, chemokine receptor CCR9 (Homo sapiens, UniProt P51686); test: CCR9 antagonistic activity, calcium flow (Fluo-4, FlexStation), CCL25 agonist; assay type: cell-based; conditions: antagonistic mode, CCL25 150 nM; for inhibition at 100 µM: read-out: Inhibition rate (%) (100 μM)
T2 construct: expressed in transfected cells
T2 sequence (P51686 1-369): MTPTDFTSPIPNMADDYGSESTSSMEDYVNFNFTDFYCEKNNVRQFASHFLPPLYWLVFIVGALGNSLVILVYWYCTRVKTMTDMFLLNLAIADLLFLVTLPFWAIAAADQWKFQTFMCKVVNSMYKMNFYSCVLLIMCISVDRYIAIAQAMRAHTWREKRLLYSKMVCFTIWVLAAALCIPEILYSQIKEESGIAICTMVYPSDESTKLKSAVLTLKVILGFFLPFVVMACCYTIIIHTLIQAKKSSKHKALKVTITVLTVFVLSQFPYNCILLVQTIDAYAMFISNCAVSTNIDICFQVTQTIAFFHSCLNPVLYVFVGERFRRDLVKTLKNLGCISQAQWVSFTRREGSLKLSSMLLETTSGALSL
Description: 2.1 Main reagents: DMEM culture medium (GIBCO); dimethyl sulfoxide (Sigma); FLUO-4, AM (Invitrogen) 2.2 Main instrument: Flexstation-3 (Molecular Devices) The test concentration gradient of the compound and replicates were set according to the requirement of testing ICSO. All test substances with 8 concentrations were set, with 3 replicates for each concentration. By establishing a cell line that cotransformed the receptor and G16, the receptor being activated can induce the activation of Gα16 protein, thereby activating phospholipase C (PLC) to produce IP3 and DAG. IP3 can bind to the IP3 receptor on the intracellular endoplasmic reticulum and mitochondria, leading to the release of intracellular calcium. Therefore, measuring changes in intracellular calcium can serve as a method for detecting the activation status of target receptor. Fluo-4/AM is a calcium fluorescent probe indicator used to measure calcium ion, as a non-polar lipophilic compound, under the action of cell lipase after entering cells, the AM group dissociates and releases Fluo-4; since Fluo-4 is a polar molecule, it is not easy to pass through lipid bilayers, allowing it to remain in the cell for a long time. Ultimately, the level of G protein activation can be reflected by measuring the excited fluorescence intensity. […] Cells stably expressing the target receptor/Ga16 were planted on a 96 well plate and cultured overnight. 2. The culture solution was removed from the well planted cells, then 40 μL/well of freshly prepared dye was added. The mixture was incubated at a constant temperature in a 37° C. incubator for 40 minutes. 3. The drug to be tested was diluted with calcium buffer and mixed well. 4. The dye was absorbed and discarded. After washed once with freshly prepared calcium buffer, 50 μL of calcium buffer that dissolved the drug to be tested was added for replacement. 5. The FlexStation II instrument was used for detection. Starting from the 15th second, […] dissolved with known agonist was automatically added by the instrument, and finally the fluorescence value at 525 nm was readed. The following formula was used to calculate the cell response rate (% Response) for each sample under each concentration. […] IC50 value was calculated using GraphPad Prism.

T1 sequence (Q8BLA8 whole entry): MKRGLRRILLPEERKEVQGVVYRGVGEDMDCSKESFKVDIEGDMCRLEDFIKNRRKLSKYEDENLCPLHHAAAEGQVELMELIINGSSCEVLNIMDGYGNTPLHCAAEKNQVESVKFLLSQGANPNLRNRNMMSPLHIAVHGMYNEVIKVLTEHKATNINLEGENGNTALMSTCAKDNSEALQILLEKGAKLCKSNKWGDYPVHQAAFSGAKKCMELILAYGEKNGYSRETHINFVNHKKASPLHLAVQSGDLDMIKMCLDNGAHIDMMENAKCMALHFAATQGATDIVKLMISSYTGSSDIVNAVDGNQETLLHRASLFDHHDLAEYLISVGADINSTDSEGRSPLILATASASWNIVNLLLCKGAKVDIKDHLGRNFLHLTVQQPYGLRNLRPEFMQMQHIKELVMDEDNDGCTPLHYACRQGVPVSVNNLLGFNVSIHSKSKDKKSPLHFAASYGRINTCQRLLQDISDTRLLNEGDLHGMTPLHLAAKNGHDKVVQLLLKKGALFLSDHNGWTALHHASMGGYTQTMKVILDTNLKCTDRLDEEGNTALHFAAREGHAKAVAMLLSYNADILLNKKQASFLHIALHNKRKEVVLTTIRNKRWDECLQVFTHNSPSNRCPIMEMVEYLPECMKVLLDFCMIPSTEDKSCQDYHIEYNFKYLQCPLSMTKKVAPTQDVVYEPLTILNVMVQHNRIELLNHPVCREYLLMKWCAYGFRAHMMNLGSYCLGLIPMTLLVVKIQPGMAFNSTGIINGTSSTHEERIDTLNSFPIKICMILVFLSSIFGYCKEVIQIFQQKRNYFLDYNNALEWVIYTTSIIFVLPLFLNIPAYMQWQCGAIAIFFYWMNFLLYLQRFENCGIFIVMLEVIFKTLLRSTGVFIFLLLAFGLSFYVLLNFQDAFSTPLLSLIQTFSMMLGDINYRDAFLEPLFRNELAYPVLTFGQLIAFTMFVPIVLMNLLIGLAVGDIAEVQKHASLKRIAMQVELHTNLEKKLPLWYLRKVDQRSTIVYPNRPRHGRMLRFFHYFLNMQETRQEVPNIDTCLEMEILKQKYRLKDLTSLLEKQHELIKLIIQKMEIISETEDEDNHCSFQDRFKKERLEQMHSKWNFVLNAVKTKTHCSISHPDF

CNCc1ccc(-c2ccco2)c(NS(=O)(=O)c2ccc(F)cc2)c1 [IA-1, 4-Fluoro-N-(2-(furan-2-yl)-5-((methylamino)methyl)phenyl)benzenesulfonamide]
IC50 (mTRPA1): 1 to 5 µM
inhibition at 100 µM (chemokine receptor CCR9): 14%
IC50 (chemokine receptor CCR9): > 100 µM

CNCc1ccc(-c2ccco2)c(NS(=O)(=O)c2ccccc2OC)c1 [IA-5, 2-Methoxy-N-(2-(furan-2-yl)-5-((methylamino)methyl)phenyl)benzenesulfonamide]
IC50 (mTRPA1): 1 to 5 µM
inhibition at 100 µM (chemokine receptor CCR9): 0%
IC50 (chemokine receptor CCR9): > 100 µM

CNCc1ccc(-c2ccco2)c(NS(=O)(=O)c2ccc(F)cc2F)c1 [IA-11, 2,4-Difluoro-N-(2-(furan-2-yl)-5-((methylamino)methyl)phenyl)benzenesulfonamide]
IC50 (mTRPA1): 1 to 5 µM
inhibition at 100 µM (chemokine receptor CCR9): 5%
IC50 (chemokine receptor CCR9): > 100 µM

CNCc1ccc(-c2ccco2)c(NS(=O)(=O)c2ccc3c(c2)CCO3)c1 [IA-15, N-(2-(furan-2-yl)-5-((methylamino)methyl)phenyl)-2,3-dihydrobenzofuran-5-sulfonamide]
IC50 (mTRPA1): 1 to 5 µM
inhibition at 100 µM (chemokine receptor CCR9): 0%
IC50 (chemokine receptor CCR9): > 100 µM

CNCc1ccc(-c2ccco2)c(NS(=O)(=O)c2ccsc2)c1 [IA-21, N-(2-(furan-2-yl)-5-((methylamino)methyl)phenyl)thiophene-3-sulfonamide]
IC50 (mTRPA1): 1 to 5 µM
inhibition at 100 µM (chemokine receptor CCR9): 25%
IC50 (chemokine receptor CCR9): > 100 µM

O=S(=O)(Nc1ccc(CNC2CC2)cc1-c1ccco1)c1ccsc1 [IA-33, N-(4-((cyclopropylamino)methyl)-2-(furan-2-yl)phenyl)thiophene-3-sulfonamide]
IC50 (mTRPA1): 1 to 5 µM
inhibition at 100 µM (chemokine receptor CCR9): 10%
IC50 (chemokine receptor CCR9): > 100 µM

CNCc1ccc(-c2ccc(C)o2)c(NS(=O)(=O)c2ccccc2)c1 [IA-35, N-(5-((methylamino)methyl)-2-(5-methylfuran-2-yl)phenyl)benzenesulfonamide]
IC50 (mTRPA1): 1 to 5 µM
inhibition at 100 µM (chemokine receptor CCR9): 35%
IC50 (chemokine receptor CCR9): > 100 µM

CNCc1ccc(-c2ccoc2)c(NS(=O)(=O)c2ccsc2)c1 [IA-43, N-(2-(furan-3-yl)-5-((methylamino)methyl)phenyl)thiophene-3-sulfonamide]
IC50 (mTRPA1): 1 to 5 µM
inhibition at 100 µM (chemokine receptor CCR9): 22%
IC50 (chemokine receptor CCR9): > 100 µM

CNCc1ccc(-c2ccoc2)c(NS(=O)(=O)c2cccs2)c1 [IA-44, N-(2-(furan-3-yl)-5-((methylamino)methyl)phenyl)thiophene-2-sulfonamide]
IC50 (mTRPA1): 1 to 5 µM
inhibition at 100 µM (chemokine receptor CCR9): 12%
IC50 (chemokine receptor CCR9): > 100 µM

CNCc1ccc(-c2cccs2)c(NS(=O)(=O)c2ccc(F)cc2)c1 [IA-45, 4-Fluoro-N-(5-((methylamino)methyl)-2-(thiophene-2-yl)phenyl)benzenesulfonamide]
IC50 (mTRPA1): 1 to 5 µM
inhibition at 100 µM (chemokine receptor CCR9): 30%
IC50 (chemokine receptor CCR9): > 100 µM

CNCc1ccc(-c2ccsc2)c(NS(=O)(=O)c2ccccc2)c1 [IA-49, N-(2-(thiophene-3-yl)-5-((methylamino)methyl)phenyl)benzenesulfonamide]
IC50 (mTRPA1): 1 to 5 µM
inhibition at 100 µM (chemokine receptor CCR9): 19%
IC50 (chemokine receptor CCR9): > 100 µM

CNCc1ccc(N(C)S(=O)(=O)c2ccsc2)c(-c2ccco2)c1 [IB, N-(2-(furan-2-yl)-4-((methylamino)methyl)phenyl)-N-methylthiophene-3-sulfonamide]
IC50 (mTRPA1): < 1 µM
inhibition at 100 µM (chemokine receptor CCR9): 10%
IC50 (chemokine receptor CCR9): > 100 µM

NCc1ccc(-c2ccco2)c(NS(=O)(=O)c2ccccc2)c1 [ID-1, N-(5-(aminomethyl)-2-(furan-2-yl)phenyl)benzenesulfonamide]
IC50 (mTRPA1): < 1 µM
inhibition at 100 µM (chemokine receptor CCR9): 15%
IC50 (chemokine receptor CCR9): > 100 µM

NCc1ccc(-c2ccco2)c(NS(=O)(=O)c2ccsc2)c1 [ID-3, N-(5-(aminomethyl)-2-(furan-2-yl)phenyl)thiophene-3-sulfonamide]
IC50 (mTRPA1): < 1 µM
inhibition at 100 µM (chemokine receptor CCR9): 13%
IC50 (chemokine receptor CCR9): > 100 µM

NCc1ccc(NS(=O)(=O)c2ccsc2)c(-c2cc[nH]n2)c1 [ID-7, N-(4-(aminomethyl)-2-(1H-pyrazole-3-yl)phenyl)thiophene-3-sulfonamide]
IC50 (mTRPA1): 1 to 5 µM
inhibition at 100 µM (chemokine receptor CCR9): 11%
IC50 (chemokine receptor CCR9): > 100 µM

CN(c1ccc(CN)cc1-c1ccco1)S(=O)(=O)c1ccsc1 [IF, N-(4-(aminomethyl)-2-(furan-2-yl)phenyl)-N-methylthiophene-3-sulfonamide]
IC50 (mTRPA1): < 1 µM
inhibition at 100 µM (chemokine receptor CCR9): 22%
IC50 (chemokine receptor CCR9): > 100 µM

O=S(=O)(Nc1ccc(CN2CC(F)C2)cc1-c1ccco1)c1ccsc1 [IJ-2, N-(4-((3-fluoroazetidin-1-yl)methyl)-2-(furan-2-yl)phenyl)thiophene-3-sulfonamide]
IC50 (mTRPA1): 1 to 5 µM
inhibition at 100 µM (chemokine receptor CCR9): 30%
IC50 (chemokine receptor CCR9): > 100 µM

CNCc1ccc(-n2cccc2)c(NS(=O)(=O)c2ccccc2)c1 [IQ-1, N-(5-((methylamino)methyl)-2-(1H-pyrrole-1-yl)phenyl)benzenesulfonamide]
IC50 (mTRPA1): 1 to 5 µM
inhibition at 100 µM (chemokine receptor CCR9): 22%
IC50 (chemokine receptor CCR9): > 100 µM

CNCc1ccc(-n2cccn2)c(NS(=O)(=O)c2ccccc2)c1 [IQ-2, N-(5-((methylamino)methyl)-2-(1H-pyrazol-1-yl)phenyl)benzenesulfonamide]
IC50 (mTRPA1): 1 to 5 µM
inhibition at 100 µM (chemokine receptor CCR9): 17%
IC50 (chemokine receptor CCR9): > 100 µM

NCCc1ccc(NS(=O)(=O)c2ccsc2)c(-c2ccco2)c1 [IR, N-(4-(2-aminoethyl)-2-(furan-2-yl)phenyl)thiophene-3-sulfonamide]
IC50 (mTRPA1): 1 to 5 µM
inhibition at 100 µM (chemokine receptor CCR9): 25%
IC50 (chemokine receptor CCR9): > 100 µM
